Laboratory results published in ChEMBL document CHEMBL3045530, “Synthesis, antimycobacterial, antiviral, antimicrobial activities, and QSAR studies of isonicotinic acid-1-(substituted phenyl)-ethylidene/cycloheptylidene hydrazides” (Med Chem Res, 2012).
Values after ≈ are worked out from the molar mass of the structure shown.

Columns and labels:
[1] = Cytotoxicity against Homo sapiens (human) MT4 cells after 4 days by MTT assay; assay type: cell-based
[2] = test system: Punta Toro virus; test: Antiviral activity against Punta Toro virus infected Vero cells assessed as inhibition of virus-induced cytopathicity; assay type: functional, organism-based
[3] = test system: Human respirovirus 3; test: Antiviral activity against Human parainfluenza virus 3 infected Vero cells assessed as inhibition of virus-induced cytopathicity by microscopy; assay type: functional, organism-based; conditions: Human respirovirus 3, Vero
[4] = test system: Coxsackievirus B4; test: Antiviral activity against Human coxsackievirus B4 infected Vero cells assessed as inhibition of virus-induced cytopathicity; assay type: functional, organism-based; conditions: Enterovirus B
[5] = test system: Candida albicans; test: Antimicrobial activity against Candida albicans after 48 hr by tube dilution method; assay type: functional
[6] = test system: Human herpesvirus 5 strain AD169; test: Antiviral activity against Human herpesvirus 5 strain AD169 Davis infected human HEL cells assessed as inhibition of virus-induced cytopathicity by microscopy; assay type: functional, organism-based; conditions: Human betaherpesvirus 5, Davis
[7] = test system: Staphylococcus aureus; test: Antimicrobial activity against Staphylococcus aureus after 24 hr by tube dilution method; assay type: functional
[8] = Cytotoxicity against Homo sapiens (human) HeLa cells assessed as alteration in cell morphology by microscopy; assay type: cell-based; conditions: read-out: MTC
[9] = test system: Human alphaherpesvirus 1; test: Antiviral activity against Human herpesvirus 1 strain KOS infected human HEL cells assessed as inhibition of virus-induced cytopathicity by microscopy by microscopy; assay type: functional, organism-based; conditions: Human alphaherpesvirus 1, KOS
[10] = test system: Sindbis virus; test: Antiviral activity against Sindbis virus infected Vero cells assessed as inhibition of virus-induced cytopathicity; assay type: functional, organism-based
[11] = test system: Human alphaherpesvirus 1; test: Antiviral activity against TK(-) aciclovir-resistant Human herpesvirus 1 strain KOS infected in human HEL cells assessed as inhibition of virus-induced cytopathicity; assay type: functional, organism-based; conditions: Human alphaherpesvirus 1, KOS
[12] = Cytotoxicity against Homo sapiens (human) HEL cells assessed as alteration in cell morphology by microscopy; assay type: cell-based; conditions: for MCC: read-out: MTC
[13] = test system: Vesicular stomatitis virus; test: Antiviral activity against Vesicular stomatitis virus infected human HeLa cells assessed as inhibition of virus-induced cytopathicity by microscopy; assay type: functional, organism-based
[14] = test system: Human immunodeficiency virus 2; test: Antiviral activity against Human immunodeficiency virus type 2 (ISOLATE ROD) infected MT4 cells assessed as inhibition of virus-induced cytopathic effect after 4 days by MTT assay; assay type: functional, organism-based; conditions: Human immunodeficiency virus 2, ISOLATE ROD, MT4, 96 h
[15] = test system: Mammalian orthoreovirus 1; test: Antiviral activity against Mammalian orthoreovirus 1 infected Vero cells assessed as inhibition of virus-induced cytopathicity by microscopy; assay type: functional, organism-based; conditions: Mammalian orthoreovirus 1, Vero
[16] = test system: Escherichia coli; test: Antimicrobial activity against Escherichia coli after 24 hr by tube dilution method; assay type: functional
[17] = test system: Vaccinia virus; test: Antiviral activity against Vaccinia virus infected human HEL cells assessed as inhibition of virus-induced cytopathicity by microscopy; assay type: functional, organism-based; conditions: Orthopoxvirus vaccinia
[18] = test system: HEL; test: Cytostatic against Homo sapiens (human) HEL cells assessed as alteration in cell morphology by microscopy; assay type: ADME, cell-based
[19] = test system: Human alphaherpesvirus 2; test: Antiviral activity against Human herpesvirus 2 strain G infected human HEL cells assessed as inhibition of virus-induced cytopathicity by microscopy; assay type: functional, organism-based; conditions: Human alphaherpesvirus 2, strain G
[20] = test system: Bacillus subtilis; test: Antimicrobial activity against Bacillus subtilis after 24 hr by tube dilution method; assay type: functional
[21] = test system: Aspergillus niger; test: Antimicrobial activity against Aspergillus niger after 7 days by tube dilution method; assay type: functional
[22] = test system: Human herpesvirus 3 strain Oka vaccine; test: Antiviral activity against Human herpesvirus 3 strain Oka vaccine OKA 07-1 (Varicella zoster virus ) infected in human HEL cells assessed as inhibition of virus-induced cytopathicity; assay type: functional, organism-based; conditions: Human alphaherpesvirus 3, HEL
[23] = test system: Coxsackievirus B4; test: Antiviral activity against Human coxsackievirus B4 infected human HeLa cells assessed as inhibition of virus-induced cytopathicity by microscopy; assay type: functional, organism-based; conditions: Enterovirus B
[24] = test system: Human immunodeficiency virus 1; test: Antiviral activity against Human immunodeficiency virus 1 IIIB infected MT4 cells assessed as inhibition of virus-induced cytopathic effect after 4 days by MTT assay; assay type: functional, organism-based; conditions: MT4, 96 h
[25] = Cytotoxicity against Chlorocebus aethiops (African green monkey) Vero cells assessed as alteration in cell morphology by microscopy; assay type: cell-based; conditions: chlorocebus sabaeus, read-out: MTC
[26] = test system: Respiratory syncytial virus; test: Antiviral activity against Respiratory syncytial virus infected human HeLa cells assessed as inhibition of virus-induced cytopathicity by microscopy; assay type: functional, organism-based

| Structure (SMILES) | CC50 at 96 h [1] [µg/mL] | EC50 [2] [µg/mL] | EC50 [3] [µg/mL] | EC50 [4] [µg/mL] | -logMIC [5] | EC50 [6] [µg/mL] | -logMIC [7] | MCC [8] [µg/mL] | EC50 [9] [µg/mL] | EC50 [10] [µg/mL] | EC50 [11] [µg/mL] | CC50 [12] [µg/mL] | MCC [12] [µg/mL] | EC50 [13] [µg/mL] | EC50 [14] [µg/mL] | EC50 [15] [µg/mL] | -logMIC [16] | EC50 [17] [µg/mL] | Activity [18] | EC50 [19] [µg/mL] | further results |
| --- | --- | --- | --- | --- | --- | --- | --- | --- | --- | --- | --- | --- | --- | --- | --- | --- | --- | --- | --- | --- | --- |
| C/C(=N\NC(=O)c1ccncc1)c1ccccc1O | 0.5 (≈ 1.96 µM) | > 4 | > 4 | > 4 | 2.61 | > 0.8 | 2.01 | 1 | 1.4 (≈ 5.48 µM) | > 4 | 4 (≈ 15.7 µM) | 0.4 (≈ 1.57 µM) | 100 | > 0.2 | > 0.5 | > 4 | 2.31 | 3.5 (≈ 13.7 µM) | Toxic | 1.3 (≈ 5.09 µM) | -logMIC [20]: 2.01; -logMIC [21]: 2.31; EC50 [22]: 1.8 µg/mL (≈ 7.05 µM); EC50 [23]: > 0.2 µg/mL; EC50 [24]: > 0.5 µg/mL; MCC [25]: ≥ 4 µg/mL; EC50 [26]: > 0.2 µg/mL |
| C/C(=N\NC(=O)c1ccncc1)c1cccc([N+](=O)[O-])c1 | 63 (≈ 222 µM) | > 4 | > 4 | > 4 | 2.36 | > 20 | 2.06 | 20 | > 20 | > 4 | > 20 | 13 (≈ 45.7 µM) | 100 | > 4 | > 63 | > 4 | 2.36 | > 20 | Toxic | > 20 | -logMIC [20]: 2.06; -logMIC [21]: 2.36; EC50 [22]: > 4 µg/mL; EC50 [23]: > 4 µg/mL; EC50 [24]: > 63 µg/mL; MCC [25]: 20 µg/mL; EC50 [26]: > 4 µg/mL |
